{
  "source": "patent US20250325684A1",
  "about": "“POTENT ANTI-CANCER CYCLOTIDES” (University of Southern California, priority 2022, published 2025)",
  "key": {"[1]": {"target": "T1, E3 ligase activity of Hdm2 (Homo sapiens, UniProt Q00987)", "T1 construct": "purchased", "T1 sequence (Q00987 whole entry, the tested form may be a part)": "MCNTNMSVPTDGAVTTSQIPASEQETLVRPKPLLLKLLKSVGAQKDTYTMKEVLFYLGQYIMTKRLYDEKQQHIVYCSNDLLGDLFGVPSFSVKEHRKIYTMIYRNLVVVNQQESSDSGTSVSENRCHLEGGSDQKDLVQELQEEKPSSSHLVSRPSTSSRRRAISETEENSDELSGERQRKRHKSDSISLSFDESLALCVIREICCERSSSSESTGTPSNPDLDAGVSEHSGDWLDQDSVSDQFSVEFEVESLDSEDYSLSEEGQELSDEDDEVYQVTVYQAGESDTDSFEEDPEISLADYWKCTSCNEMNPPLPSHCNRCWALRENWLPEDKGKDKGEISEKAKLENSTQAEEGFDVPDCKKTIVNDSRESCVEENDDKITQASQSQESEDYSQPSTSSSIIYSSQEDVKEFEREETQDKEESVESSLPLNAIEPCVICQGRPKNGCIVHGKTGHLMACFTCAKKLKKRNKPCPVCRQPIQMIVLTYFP", "experiment": "E3 ligase activity of Hdm2 on p53, commercial kit", "type": "biochemical", "conditions": "in vitro, Hdm2 around 1 μM (FIG. 4B)", "procedure": "FIGS. 4A-4B: Structure and E3 ligase inhibitory activity of cyclotide MCo-52-2. (FIG. 4A) Structures of the heterodimer formed by the RINGs domain of Hdm2 and HdmX and the complex of cyclotide MCo-52-2 with the RING domain of HdmX, the interacting residues in loops 1 and 5 are shown in light grey (on the left). (FIG. 4B) Inhibitory E3 ligase activity of cyclotide of Hdm2 on p53. The concentration of Hdm2 in the assay was around 1 μM as provided in the commercial kit.\nCyclotide MCo-52-2-cTAT efficiently antagonizes the RING-mediated dimerization of Hdm2/HdmX inhibiting its E3 ligase activity. Applicant developed a cell-based screening of genetically-encoded libraries of cyclotides for Hdm2/HdmX antagonists that has allowed the selection of a bioactive cyclotide, MCo-52-2-cTAT. […] This cyclotide can be efficiently produced by chemical synthesis using solid-phase peptide synthesis (SPPS) or heterologous expression systems (28). Heterologous expression of cyclotides allows introduction of NMR-active isotopes, such as ^13C and ^15N to study the structure of this cyclotide and how interacts with the RING-domains of Hdm2 and HdmX. Using this approach, Applicant solved the structure of cyclotide MCo-52-2 complexed to the RING domain of HdmX in solution (FIG. 4A)."}, "[2]": {"test_system": "p53 pathway in LNCaP cells", "experiment": "Activation of the p53 pathway in LNCaP cells", "type": "cell-based, human", "procedure": "Activation of the p53 pathway requires 6 to 8 h after exposing the cells to cyclotide MCo-52-2 for 1 h (FIG. 5B).\n(§1) Stabilization of p53 could be observed just 8 h after treating the cells with the bioactive cyclotide (FIG. 5B), likely indicating the cyclotide crosses the cellular membrane into the cytosol through an endocytic mechanism as previously described for this type of microproteins (30, 31). […] These transcription factors (ATF3, FOXO3a and RUNX3) and kinases (DYRK2 and HIPK2) have been described to be regulated by the E3 ligase activity of Hdm2/HdmX (6). […] In both cases the peptide was able to inhibit tumor growth by 60% (HCT116-nude mice) and 80% (CT26-Balb/c mice) (FIG. 7)."}, "[3]": {"test_system": "p53, FOXO3a, RUNX3, ATF3, DYRK2 and HIPK2 in HCT116 cell lines", "experiment": "Stabilization of Hdm2/HdmX E3 ligase substrates in HCT116 cell lines", "type": "cell-based, human", "conditions": "HCT116 cell lines with p53-wt and -null phenotype; listed as MCo-52-2-cTAT", "procedure": "as §1"}, "[4]": {"test_system": "HCT116 xenografts", "experiment": "HCT116 xenograft in nude mice", "type": "in vivo, mouse", "conditions": "two murine models of colorectal carcinoma", "procedure": "Mice xenografts studies. HCT116 p53^−/− and CT26 xenografts were established by injecting 100 uL suspension of basal RPMI containing 0.5×10^6 cells into the rear right flanks of female nude mice (nu/nu) mice (HCT116) or Balb/C (CT26). When tumors reached an average volume of ≈100 mm^3, cohorts (n≥4) were treated with vehicle (5% dextrose in water, D5W), MCo-52-2-cTAT (40 mg/kg), or Nutlin-3 (20 mg/kg, […]) once daily for up to 38 days by intravenous injection (MCo-52-2-cTAT and vehicle) or by intraperitoneal administration (Nutlin-3) for HCT116 xenografts; or with vehicle (D5W), MCo-52-2-cTAT (25 mg/kg) three times per week by intraperitoneal injection. Compounds were prepared in a D5W at a final volume of 50 μL (peptide) or 100 μL (Nutlin-3). […] Individual weights were recorded thrice weekly, comparing the control and treatment groups as an additional indicator of tolerance of drug treatment as well as providing the average weight for calculation of drug dosing. Tumor size was measured with calipers. Tumor volume was calculated by measuring tumor size in two dimensions and applying those measurements to the calculation V=d^2×D/2, where d and D equal to the smaller and larger of the two measurements, respectively. […]"}, "[5]": {"experiment": "Toxicity observation in tumor-bearing mice", "type": "in vivo, mouse", "conditions": "dosed up to 40 mg/kg three times per week", "procedure": "Tumor samples were also subjected to SDS-PAGE and analyzed by western blotting for p53, Hdm2, and p21. GAPDH was used as loading control in western blots.\nMice xenografts studies. HCT116 p53^−/− and CT26 xenografts were established by injecting 100 uL suspension of basal RPMI containing 0.5×10^6 cells into the rear right flanks of female nude mice (nu/nu) mice (HCT116) or Balb/C (CT26). […] Compounds were prepared in a D5W at a final volume of 50 μL (peptide) or 100 μL (Nutlin-3). Health checks were performed daily to observe parameters such as body conditioning score, overall appearance and cleanliness, strength of grip, skin color and tone, mobility, gait and activity level as indicators of potential drug related toxicities. Individual weights were recorded thrice weekly, comparing the control and treatment groups as an additional indicator of tolerance of drug treatment as well as providing the average weight for calculation of drug dosing. Tumor size was measured with calipers. Tumor volume was calculated by measuring tumor size in two dimensions and applying those measurements to the calculation V=d^2×D/2, where d and D equal to the smaller and larger of the two measurements, respectively. Mice bearing tumors larger than 2.4 cm^3 were removed from the study, sacrificed and necropsies performed to gather tumor and organ samples for histological analysis. […]"}, "[6]": {"experiment": "Immunogenicity, IgG titer ELISA in Balb/c mice", "type": "in vivo, mouse", "conditions": "intraperitoneal 25 mg/kg, 3 times per week for 28 days, listed as MCo-52-2-cTAT", "procedure": "The ELISA assay was performed as follows. Micro microplate wells were coated with pmol of streptavidin and then blocked with a 5 solution of nonfat dry milk in PBS. Around of 150 pmol of the corresponding biotinylated antigen (MCo-52-2 or cTAT) were incubated with the streptavidin-coated wells. Murine IgG (m-IgG, 150 pmol) and PBS (no antigen) were used as positive and negative controls in the assay, respectively. Wells coated with antigens MCo-52-2 and cTAT were incubated with serial dilutions of sera from mice untreated and treated with cyclotide MCo-52-2-cTAT. The amount of murine IgG was detected using a goat HRP-conjugated anti-mouse IgG."}},
  "note": "Entries after “also recorded” stand apart in the source; their conditions may differ. Numbered stars: 1 amine (or outer) side, 2 acyl side, 3 side chain; on linkers, the order of the positions; unused ones are H or OH. Bridge positions count the residues as written; N and C are the ends. Square brackets hold non-standard residues; d marks the D form. I, II: the chains in the order shown. X1 = O=C(CCc1cn(CCOCCOCCOCCC(=O)[*:2])nn1)[*:1]; isoGln = NC(=O)[C@H](CCC(=O)[*:2])N[*:1]",
  "data": [
    {"substance": "I: cyclo(ACICRHDSYCGSGSDGGVCPNLYLLCRRDKDCPG) / II: KK[dR]R[dR]G[dR]K[dK]R[dR][isoGln] (disulfide I:2-I:19, I:4-I:26, I:10-I:32; linker I:30-II:N via X1; lactam II:1-II:C) [Cyclotide 52-2-cTAT]", "values": [
      {"measurement": "Inhibition of the E3 ligase activity of Hdm2", "setting": "[1]", "result": "specifically inhibit the E3 ligase activity of Hdm2 in vitro in a dose-dependent fashion"},
      {"measurement": "Time until activation of the p53 pathway / stabilization of p53", "setting": "[2]; after exposing the cells to cyclotide for 1 h, listed as MCo-52-2-cTAT", "result": 8, "unit": "h"},
      {"measurement": "Activation of the p53 pathway", "setting": "[2]; wild type-p53, listed as MCo-52-2-cTAT", "result": "activate the p53 pathway in wild type-p53 cancer cells (LNCaP) in a dose-dependent fashion; also recorded: activates the p53 pathway in LNCaP cells in a dose-dependent fashion"},
      {"measurement": "Stabilization of transcription factors and kinases", "setting": "[3]", "result": "stabilize ATF3, FOXO3a, RUNX3, DYRK2 and HIPK2; also recorded: stabilizes transcription factors p53, FOXO3a, RUNX3, ATF3, and kinases DYRK2 and HIPK2"},
      {"measurement": "p53 expression on tumor tissue (western blotting)", "setting": "[4]", "result": "stabilizes p53 expression on tumor tissue"},
      {"measurement": "Toxic effects", "setting": "[5]", "result": "No toxic effects were detected"},
      {"measurement": "Immunogenicity, IgG titer against the cyclotide", "setting": "[6]", "result": "did not show any significant IgG titer; also recorded: little immunogenicity"}
    ]}
  ]
}
